# According to patent publication US20250241347A1, “COMPOSITIONS AND METHODS FOR TASTE MODULATION” (INTERNATIONAL FLAVORS & FRAGRANCES INC., priority 2019, published 2025):
# Assays:
# [1] = Taste modulation in applications (Table 3), malic/citric acid base; details: base malic acid 1000 ppm and citric acid 2000 ppm in water; 1 ppm, composition composed only of wogonin
# [2] = Masking effect on benzoic acid, trained panel; set-up: species or system human; details: base benzoic acid 250 ppm in water, test sample 0.5 ppm
# From the text: (§1) Preparation of Test Samples: […], oroxylin A-7 glucouronide, wogonoside, baicalein, oroxylin A and wogonin were purchased commercially. S. baicalensis extract (“Extract”) and cabohydrase-treated S. baicalensis extract (“Treated Extract”) were obtained as above in Example 1.
# (§2) Subsequently, all compounds and extracts were applied to different bases for evaluating their off-taste masking functions.
# (§3) Testing Procedure: The masking effects on the off-tastes (bitterness, sourness, astringency, lingering and drying aftertaste, etc.) associated with various food components was evaluated by a group of 16 trained panelist. Each provided a rank of masking intensity using the intensity scales of 0 to 5, where 0 represents “no masking effect,” 1 represents “minimal masking intensity” and 5 represents “the most masking intensity.” The average of the reported making intensity is presented in the following examples.
# A base solution of benzoic acid was prepared in water (250 ppm). […] The flavor profile of the benzoic acid solutions with compounds or extracts was further evaluated and is reported in the following: […]
# [3] = Masking effect on sorbic acid, trained panel; set-up: species or system human; details: base sorbic acid 150 ppm in water, test sample 0.5 ppm
# From the text: as §1, §2, §3
# A base solution of sorbic acid was prepared in water (150 ppm). […] The flavor profile of the sorbic acid solutions with compounds or extracts were further evaluated and is reported in the following: […]
# [4] = Masking effect on Reb A, trained panel; set-up: species or system human; details: base Reb A 200 ppm in water; for Masking Intensity: panel average, scale 0-5
# From the text: as §1, §2, §3
# A base solution of Reb A was prepared in water (200 ppm). […] The flavor profile of the Reb A solutions with compounds or extracts were further evaluated and is reported in the following: […]
# [5] = Masking effect on pea protein, trained panel; set-up: species or system human; details: base TRUPRO pea protein 5% in water, test sample 0.5 ppm
# From the text: as §1, §2, §3
# A base solution of TRUPRO® pea protein (Solae LLC) was prepared in water (5%). […] The flavor profile of the pea protein solutions with compounds or extracts were further evaluated and is reported in the following: […]
# [6] = Masking effect on citric acid, trained panel; set-up: species or system human; details: base citric acid 300 ppm in water, test sample 0.5 ppm
# From the text: as §1, §2, §3
# A base solution of citric acid was prepared in water (300 ppm). […] The flavor profile of the citric acid solutions with compounds or extracts were further evaluated and is reported in the following: […]
# [7] = Masking effect on Acesulfame-K, trained panel; set-up: species or system human; details: base Acesulfame-K 300 ppm in water, test sample 0.5 ppm
# From the text: as §1, §2, §3
# A base solution of Acesulfame-K was prepared in water (300 ppm). […] The flavor profile of the Acesulfame-K solutions with compounds or extracts were further evaluated and is reported in the following: […]
# [8] = Masking effect on Reb M, trained panel; set-up: species or system human; details: base Reb M 200 ppm in water; for Masking Intensity: panel average, scale 0-5
# From the text: as §1, §2, §3
# A base solution of Reb M was prepared in water (200 ppm). […] The flavor profile of the Reb M solutions with compounds or extracts were further evaluated and is reported in the following: […]
# [9] = Taste modulating activity of the individual compounds; details: individual compounds, Example 1
# Description: With bio-transformation, most baicalin was converted to baicalein; oroxylin A glucuronide was converted to oroxylin A; and wogonoside was converted to wogonin. The activity of the individual compounds was also analyzed for taste modulating activity.
structure (smiles),measurement,setting,value
"COc1c(O)cc(O)c2c(=O)cc(-c3ccccc3)oc12 [Wogonin, 5,7-dihydroxy-8-methoxyflavone]",Functions,[1],"Masked the sharp sourness, added mouthfeel"
same,Flavor Profile,[2],"Reduced astringency, sourness, and drying"
same,Masking Intensity,"[2]; panel average, scale 0-5",5
same,Flavor Profile,[3],"Reduced astringency, sourness, and drying"
same,Masking Intensity,"[3]; panel average, scale 0-5",5
same,Masking Intensity,[4]; test sample 0.001 ppm,1
same,Flavor Profile,[4]; test sample 0.01 ppm,"Slightly reduced astringency, licorice flavor"
same,Masking Intensity,[4]; test sample 0.01 ppm,2
same,Masking Intensity,[4]; test sample 0.1 ppm,3
same,Masking Intensity,[4]; test sample 0.5 ppm,4
same,Masking Intensity,[4]; test sample 1 ppm,5
same,Masking Intensity,[4]; test sample 10 ppm,3
same,Masking Intensity,[4]; test sample 50 ppm,2
same,Flavor Profile,[5],"Reduced astringency and bitterness, less"
same,Masking Intensity,"[5]; panel average, scale 0-5",5
same,Flavor Profile,[6],"Reduced tart taste, more pleasant"
same,Masking Intensity,"[6]; panel average, scale 0-5",4
same,Flavor Profile,[7],"Reduced bitterness and lingering aftertaste,"
same,Masking Intensity,"[7]; panel average, scale 0-5",4
same,Masking Intensity,[8]; test sample 0.01 ppm,1
same,Flavor Profile,[8]; test sample 0.1 ppm,Slightly reduced bitterness and lingering
same,Masking Intensity,[8]; test sample 0.1 ppm,3
same,Flavor Profile,[8]; test sample 0.5 ppm,"Reduced bitterness and lingering aftertaste,"
same,Masking Intensity,[8]; test sample 0.5 ppm,5
same,Flavor Profile,[8]; test sample 10 ppm,"Slightly reduced lingering aftertaste, very"
same,Masking Intensity,[8]; test sample 10 ppm,2
same,Flavor Profile,[8]; test sample 50 ppm,"Slightly reduced lingering aftertaste,"
same,Masking Intensity,[8]; test sample 50 ppm,1
same,taste modulating activity,[9],more active
